{
  "source": "patent US20090169472A1",
  "about": "“METHODS AND COMPOSITIONS FOR TREATING IMMUNE DISORDERS” (CANCER RESEARCH TECHNOLOGY LTD., priority 2005, published 2009)",
  "key": {"[1]": {"system": "human plasmacytoid DC (pDC)", "assay": "Human pDC activation assay (IFNα and IL-6 in supernatant by sandwich ELISA)", "format": "cell-based", "protocol": "Human pDC activation assays. R848 and RNA9.2DR complexed to LyoVec were from Invivogen. RNA oligonucleotides were purchased from Sigma Proligo. Human PMBCs were purified from normal human peripheral blood by Ficoll-Hypaque centrifugation. BDCA4^+ plasmacytoid DC were purified from total PBMC by positive selection using CD304^+ Microbeads and MiniMacs from MiltenyiBiotec. Oligonucleotides/PEI complexes, prepared as described above, were added to 1-2×10^5 pDC seeded in duplicate in 96-well-plates. Cells were cultured overnight in a final volume of 200 μl, supernatants were collected after 18-20 hr of culture and levels of IFNα and IL-6 were determined by sandwich ELISA."}, "[2]": {"system": "Flt3L-DC", "assay": "Flt3L-DC activation assay (cytokines in supernatant by sandwich ELISA)", "format": "cell-based, mouse", "description": "Flt3L-DC were generated from bone marrow cell suspensions in RPMI 1640 medium containing 10% fetal calf serum, 2 mM glutamine, 100 units/ml penicillin, 100 μg/ml streptomycin, 50 μM 2-mercaptoethanol and 50 ng/ml murine Flt3L (R&D systems) and were used at day 10 or 11 of cultures.\nFor stimulation with oligonucleotides, 2×10^5 Flt3L-DC were seeded in triplicate in 96-well-plates. Oligonucleotides were added and cells were cultured overnight in a final volume of 200 μl. Controls contained medium alone, 0.5 μg/ml CpG 1668, 100 mM loxoribine or 1 μM R848.\nFor stimulation with oligonucleotides other than CpG 1668, different doses of each test oligonucleotides were diluted in 150 mM NaCl solution and mixed with an equal volume of 150 mM NaCl solution+/−polytheylenimine (PEI; 3 μl/ml PEI were used irrespective of the RNA dose). After 15 min incubation at room temperature, oligonucleotide/PEI complexes were added to cells. Supernatants were collected after 18-20 hr of culture and levels of IFNα, IL-6 and IL-12 p40 were determined by sandwich ELISA."}, "[3]": {"conditions": "polyUs 21-mer 10 μM as PEI complexes, RNA9.2DR 1 μM as LyoVec complexes, R848 1 μM"}},
  "note": "Oligonucleotides are written 5' to 3', each unit as a sugar letter and its base; * is a phosphorothioate linkage, no mark a phosphodiester; rarer units and linkages stand in square brackets, end groups in braces. Plain capitals give the bases only. r = 2'-OH (RNA)",
  "data": [
    {"substance": "polyUs-21: polyU RNA 21-mer, phosphorothioate bonds, SEQ ID NO 5 (rU*rU*rU*rU*rU*rU*rU*rU*rU*rU*rU*rU*rU*rU*rU*rU*rU*rU*rU*rU*rU)", "values": [
      {"measurement": "IFN-α production by human pDC", "setting": "[1]; PEI complexes, different doses of polyUs 21-mer, polyAs 21-mer 1 μM, overnight culture", "value": "induced IFN-α production by human pDC in a dose-dependent manner"},
      {"measurement": "optimal dose of ssRNA for IFN-α induction", "setting": "[1]; human pDC, PEI complexes", "value": 3, "unit": "µg/mL"},
      {"measurement": "IFNα production by human pDC, comparison of TLR7/8 agonists", "setting": "[1]; [3]", "value": "induced equivalent levels of IFNα production by human pDC"},
      {"measurement": "IL-6 induction by human pDC", "setting": "[1]; [3]", "value": "failed to induce IL-6 secretion by pDC"},
      {"measurement": "potency in inducing IFNα compared with RNA40", "setting": "[2]; PEI complexes", "value": "much more potent than RNA40"},
      {"measurement": "IFNα levels, RNA oligonucleotide polyUs-21 compared with DNA oligonucleotide polydUs-21", "setting": "[2]; PEI complexes, all doses tested", "value": "induced higher levels of IFNα at all doses tested"},
      {"measurement": "IFNα induction by Flt3L-DC", "setting": "[2]; free oligonucleotide given to culture without PEI", "value": "induced IFNα"},
      {"measurement": "fold more potent in inducing IFNα by Flt3L-DC than R848 and loxoribine", "setting": "[2]; ligands at concentrations of maximum cytokine induction: polyUs-21 1 μg/ml + PEI, CpG 1668 0.5 μg/ml, loxoribine 100 mM, R848 10 μg/ml", "value": "approximately 30 times"},
      {"measurement": "optimal dose of ssRNA for IFNα induction", "setting": "[2]; mouse Flt3L, PEI complexes", "value": 3, "unit": "µg/mL"},
      {"measurement": "IFNα induction by Flt3L-DC", "setting": "[2]; oligonucleotide/PEI complexes, C57BL/6 Flt3L-DC, overnight culture, result in words", "value": "induced IFNα by Flt3L-DC in a dose dependent manner"},
      {"measurement": "ability to stimulate TLR7", "setting": "[2]; summary statement on oligonucleotides of Table 1", "value": "capable of stimulating TLR7"}
    ]}
  ]
}
